# Molecular target: HPK1 (Homo sapiens (Human), UniProt Q92918)
# Experiment: HPK1 Kinase Binding Assay
# Conditions: LanthaScreen tracer 222 binding, active HPK1, 1 h at 25° C.
# Description: A stock solution of 1 mM test compound was prepared in DMSO. The compound plate was prepared by 3-fold and 11-point serial dilutions. 0.1 μL of the compound in DMSO was transferred from the compound plate to the white 384 well polystyrene plates. The assay buffer contained 50 mM HEPES, pH 7.5, 0.01% Tween-20, 5 mM MgCl2, 0.01% BSA, and 5 mM DTT. 5 μL of 4 nM active HPK1 (SignalChem M23-11G) prepared in the buffer was added to the plate. The enzyme concentration given was based on the given stock concentration reported by the vender. […] After one hour incubation at 25° C., the plates were read on a PHERAstar FS plate reader (BMG Labtech). Ki values were determined.
# Sequence of HPK1 (Q92918 1-346 limits assumed): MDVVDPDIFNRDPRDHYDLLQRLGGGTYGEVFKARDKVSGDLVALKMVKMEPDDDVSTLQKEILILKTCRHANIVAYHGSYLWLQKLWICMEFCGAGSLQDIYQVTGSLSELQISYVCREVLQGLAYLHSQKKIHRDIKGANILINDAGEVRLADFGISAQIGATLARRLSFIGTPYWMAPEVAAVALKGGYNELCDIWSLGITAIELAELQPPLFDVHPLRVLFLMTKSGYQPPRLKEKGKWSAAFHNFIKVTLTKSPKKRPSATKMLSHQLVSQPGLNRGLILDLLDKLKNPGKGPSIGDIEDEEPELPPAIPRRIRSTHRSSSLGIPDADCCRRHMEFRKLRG
smiles,measurement,value
"COc1cccc(F)c1-c1nccc(C(=O)Nc2cc(F)c3nn(C)cc3c2N2CCC[C@@H]2CN)n1 (single isomer, unassigned; peak 1) [10, Peak 1]",Ki,< 100 nM

# — patent publication US11492354B2, “Indazole compounds and uses thereof” (Incyte Corporation, priority 2018, dated 2022)
